# Test results taken from paper PMC10846240, “Pharmacokinetic/pharmacodynamic integration of amphenmulin: a novel pleuromutilin derivative against Mycoplasma gallisepticum” (Microbiology Spectrum, 2023).
# Values joined by “and” are separate entries in the source; they are usually repeats but may differ in a detail not shown here. Equal entries are not always repeated. Where two headings read alike, the source gives them in different places.
# Experiment: In vivo pharmacokinetics of amphenmulin in chickens (IV, IM, PO)
# Details: for Cmax: mean ± SD, n = 10; for bioavailability: read-out: F (absolute bioavailability)
# Procedure: The M. gallisepticum standard strain S6 was obtained from the National Center for Veterinary Culture Collection (Beijing, China). Amphenmulin (98%) was synthesized by our laboratory according to the published methods ([10]). Acetonitrile and all other liquid chemicals used were purchased from Macklin Biochemical Technology Co., Ltd (Shanghai, China). M. gallisepticum in this study was cultured under standard conditions of 37°C with the following nutrients: swine serum, M. gallisepticum artificial medium base from Qingdao Hope Biological Technology Co., Ltd (Qingdao, China), nicotinamide adenine dinucleotide (NADH) and cysteine from Aladdin Biochemical Technology Co., Ltd (Shanghai, China). Thirty healthy adult yellow-feathered broilers weighing 1.58 to 2.04 kg were used in this study, caged, fed without antibiotics and anticoccidial drugs, and watered and fed ad libitum. All animal experimental procedures were approved by the Animal Ethics Committee of South China Agricultural University (Approval number: 2023a015).
# In this study, the dose design for the administration of amphenmulin was mainly based on the previous study report on tiamulin ([15]). The chickens were randomly divided into three groups (10 per group) and given a single dose of 20 mg/kg of body weight (bw.) of amphenmulin via intravenous, intramuscular injection, and oral gavage, respectively. Blood samples were collected from the brachial wing vein of each chicken at 0, 5, 10, 15, 30, 45 min, 1, 2, 3, 4, 6, 8, 10, 12, 24 h after intravenous injection, and at 0, 3, 6, 9, 12, 20, […], 45 min, 1, 2, 4, 8, 12, 24 h after oral and intramuscular administrations. The blood samples were centrifuged at 3,500 rpm for 10 min. The plasma was collected and stored at −20°C until analysis.
# After the plasma samples were restored to room temperature, 200 µL was taken and vortexed with 800 µL of acetonitrile, centrifuged at 12,000 rpm for 10 min. The supernatant was filtered through a 0.22-µm filter and analyzed using a high-performance liquid chromatography-tandem mass spectrometry (HPLC-MS/MS) system (Agilent 1200 HPLC and Applied Biosystem API4000 mass spectrometer, ABI Sciex, USA). Amphenmulin was separated on a C18 column (150 mm × 2 mm, 5 µm) at a flow rate of 0.5 mL/min, with a mobile phase of 0.1% aqueous formic acid and acetonitrile (40:60, vol/vol). The electrospray ionization (ESI) source of the mass spectrometer was operated in positive ion mode for multi-reaction monitoring, with the following ion source parameters: ion spray voltage 4,500 V, collision gas 5 psi, ion source gas1 50 psi, ion source gas2 55 psi, curtain gas 20 psi, source temperature 400°C.
# Additionally, the plasma concentration–time data of amphenmulin in each individual were further analyzed using the non-compartmental method in Phoenix 8.1 (Certara, USA) to calculate pharmacokinetic parameters, in which the area under the curve (AUC) was calculated using the log-linear trapezoidal method, and the results were reported as mean ± standard deviation (SD).
# [1] = yellow-feathered broilers, plasma, 20 mg/kg bw., IM
# [2] = yellow-feathered broilers, plasma, 20 mg/kg bw., IV
# [3] = yellow-feathered broilers, plasma, 20 mg/kg bw., PO
smiles,measurement,setting,value
"C=C[C@]1(C)C[C@@H](OC(=O)CSc2ccccc2N)[C@]2(C)[C@H](C)CC[C@]3(CCC(=O)[C@H]32)[C@@H](C)[C@@H]1O [amphenmulin, 22-(2-amino-phenylsulfanyl)-22-deoxypleuromutilin]",T1/2Ke,"20 mg/kg bw., IM",5.50 ± 1.43 h
same,T1/2Ke,"20 mg/kg bw., IV, 20 mg/kg",2.13 h and 2.13 ± 0.63 h
same,T1/2Ke,"20 mg/kg bw., PO",2.60 ± 0.87 h
same,oral absorption rate constant (Ka),"oral, residual method",approximately 3.15 1/h
same,Tmax,"yellow-feathered broilers, chicken, plasma, other: oral and intramuscular, 20 mg/kg bw., two extravascular routes (oral and intramuscular), read-out: time to peak levels after administration",< 0.5 h
same,AUC(0-inf),[1],9850 ± 2720 ng·h/mL
same,AUC(0-t),[1],9160 ± 2650 ng·h/mL
same,MRT,[1],7.89 ± 2.75 h
same,k el,[1],3.61e-05 s⁻¹
same,Cmax,[1],1930 ± 480 ng/mL
same,bioavailability,[1],52.1%
same,Tmax,"yellow-feathered broilers, plasma, 20 mg/kg bw., IM, read-out: Tmax",0.38 ± 0.2 h
same,AUC(0-inf),[2],18900 ± 6030 ng·h/mL
same,AUC(0-t),[2],18800 ± 6090 ng·h/mL
same,MRT,[2],3.13 ± 1.05 h
same,clearance,[2],19.5 mL/min/kg
same,k el,[2],9.72e-05 s⁻¹
same,Vd,"yellow-feathered broilers, plasma, 20 mg/kg bw., IV, read-out: Vss",3.64 ± 1.58 L/kg
same,AUC(0-inf),[3],1110 ± 430 ng·h/mL
same,AUC(0-t),[3],1060 ± 400 ng·h/mL
same,MRT,[3],2.98 ± 1.05 h
same,k el,[3],8.06e-05 s⁻¹
same,Cmax,[3],730 ± 360 ng/mL
same,bioavailability,[3],5.88%
same,Tmax,"yellow-feathered broilers, plasma, 20 mg/kg bw., PO, read-out: Tmax",0.25 ± 0.11 h
